In article PMC12000319, “Proton conductance by human uncoupling protein 1 is inhibited by purine and pyrimidine nucleotides” (The EMBO Journal, 2025):
Several values for one entry are separate records, joined by “and”; a condition that tells them apart may be missing. Equal values may be shown once. Blank lines part the entries; values can stand above or below the molecule they belong to.

What was measured:
UCP1 [1] = target: T1, UCP1 (Homo sapiens, UniProt P25874); assay: Isothermal titration calorimetry of nucleotide binding; set-up: isotherm data point (enthalpy change per injection): unit not given here; conditions: for isotherm data point (enthalpy change per injection): representative isotherm;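 on all read-outs here: purified human UCP1 in cacodylate buffer with lauryl maltose neopentyl glycol and cardiolipin, titrated with nucleotides, isotherms fitted by one-site model yielding ΔH, Kd and stoichiometry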
T1 construct: His8 (N, cleaved yes); Factor Xa protease cleavage site (N, cleaved yes); made in house; host or cells: Saccharomyces cerevisiae strain W303.1B
T1 sequence (P25874 1-307): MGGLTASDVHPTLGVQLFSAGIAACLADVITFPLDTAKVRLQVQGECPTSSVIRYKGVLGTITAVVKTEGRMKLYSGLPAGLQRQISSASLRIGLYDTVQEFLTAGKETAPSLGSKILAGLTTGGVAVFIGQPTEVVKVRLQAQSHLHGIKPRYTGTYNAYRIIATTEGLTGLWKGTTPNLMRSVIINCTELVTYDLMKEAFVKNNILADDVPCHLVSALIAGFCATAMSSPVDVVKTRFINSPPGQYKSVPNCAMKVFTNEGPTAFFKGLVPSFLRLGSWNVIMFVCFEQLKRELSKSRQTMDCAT

human OGC (SLC25A11) = target: T2, human OGC (SLC25A11) (Homo sapiens, UniProt Q02978); assay: Differential scanning fluorimetry (nanoDSF) thermal stability shift assay; type: binding; conditions: 1 mM nucleotide, pH 6.0, single repeats (source data Fig. 4A)
T2 construct: His8 (N, cleaved yes); Factor Xa protease cleavage site (N, cleaved yes); made in house; host or cells: Saccharomyces cerevisiae strain W303.1B
T2 sequence (Q02978 1-314): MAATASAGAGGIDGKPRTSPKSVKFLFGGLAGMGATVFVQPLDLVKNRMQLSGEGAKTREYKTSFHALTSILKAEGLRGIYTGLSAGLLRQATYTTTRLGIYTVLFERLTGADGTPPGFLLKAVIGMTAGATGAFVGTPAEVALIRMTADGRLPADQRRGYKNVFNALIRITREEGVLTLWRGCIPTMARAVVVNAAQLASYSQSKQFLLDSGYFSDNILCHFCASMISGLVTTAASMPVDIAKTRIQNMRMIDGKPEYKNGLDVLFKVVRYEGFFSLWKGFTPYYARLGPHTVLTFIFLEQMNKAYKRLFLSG
From the text: (§1) UCP1 is phylogenetically related to mitochondrial dicarboxylate carriers, gaining thermogenic properties as a later evolutionary development (Hughes et al, [2009]; Robinson et al, [2008]). The mitochondrial dicarboxylate carrier (DIC, SLC25A10) and oxoglutarate carrier (OGC, SLC25A11) are most closely related to UCP1 (Gaudry et al, [2019]; Hughes et al, [2009]) and share many residues involved in nucleotide binding in UCP1, such as the arginine triplet at the contact points, R92 and Q85 (Jones et al, [2024]). Given the similarity of the central cavity of UCP1, OGC and DIC, we tested whether the dicarboxylate carriers have the ability to bind nucleotides. For this purpose, we purified human DIC and OGC, and tested whether nucleotides were able to generate a thermostability shift, as observed for their physiological substrates (Pyrihová et al, [2024]). However, all tested nucleotides caused a negligible shift with both DIC or OGC at all pH values tested between 6.0 and 8.0 (Fig. 4A; Appendix Fig. S5). Thus, despite having many residues in common (Fig. 4B–D), UCP1 has evolved to have a few specific residues that allow high-affinity binding of nucleotides without a strong selection for nucleobase.
(§2) Differential scanning fluorimetry (nanoDSF) (Alexandrov et al, [2008]) was carried out with 2 µg UCP1, DIC or OGC protein (100 mM MES/HEPES, pH range 6.0–8.0, 25 mM NaCl, 1 mM TCEP, 0.01% lauryl maltose neopentyl glycol and 0.01 mg/mL tetraoleoyl cardiolipin) and, when required, 1 mM nucleotide, as indicated. The proteins have the following number of tryptophans: UCP1 (two); OGC (two); DIC (one). The samples were loaded into nanoDSF-grade standard glass capillaries. The temperature was increased by […] every minute from 25 to 95 °C, the intrinsic fluorescence was measured in a Prometheus NT.48 nanoDSF device, and the apparent Tm was calculated with the PR.ThermControl software (NanoTemper Technologies).

human DIC (SLC25A10) = target: T3, human DIC (SLC25A10) (Homo sapiens, UniProt Q9UBX3); assay: as above; type: binding; conditions: 1 mM nucleotide, pH 6.0, single repeats (source data Fig. 4A)
T3 construct: His8 (N, cleaved yes); Factor Xa protease cleavage site (N, cleaved yes); made in house; host or cells: Saccharomyces cerevisiae protease-deficient strain BJ2186
T3 sequence (Q9UBX3 1-287): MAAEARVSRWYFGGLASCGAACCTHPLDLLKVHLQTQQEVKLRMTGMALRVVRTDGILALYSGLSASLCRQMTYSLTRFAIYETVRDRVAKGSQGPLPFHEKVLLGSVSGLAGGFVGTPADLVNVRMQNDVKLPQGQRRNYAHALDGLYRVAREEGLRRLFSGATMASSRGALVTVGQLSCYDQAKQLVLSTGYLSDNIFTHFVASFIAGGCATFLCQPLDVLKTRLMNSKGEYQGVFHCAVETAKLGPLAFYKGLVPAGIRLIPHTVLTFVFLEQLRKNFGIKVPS
From the text: as §1, §2

UCP1 [2] = target: T1, UCP1; assay: Liposome reconstitution and proton conductance assay (pyranine fluorescence); type: biochemical; conditions: UCP1 proteoliposomes, 200 µM oleic acid alone, 2.5 µM valinomycin; single reconstitutions
[3] = target: T4, human uncoupling protein 1 (human, UniProt P25874); assay: cryo-EM structure; UCP1, PMb65 and PMb71 mixed stoichiometrically, overnight at 4 °C; complex separated by SEC (20 mM MES pH 6.0, 150 mM NaCl, 0.02% lauryl maltose neopentyl glycol, 0.02 mg/mL tetraoleoyl cardiolipin, 1 mM TCEP); 2 mM UTP and 2 mM D-maltose added; 3.03 Å; conditions: both partners purified
T4 construct: human uncoupling protein 1 (UCP1, SLC25A7), Uniprot P25874; Detergent-solubilised, with tetraoleoyl cardiolipin; also called UCP1; SLC25A7; source: Saccharomyces cerevisiae W303.1B, purified from mitochondria (Ni Sepharose, on-column Factor Xa cleavage); not shown: His8, N-terminal, cleaved

- binding affinity to UCP1 (in words) (UCP1 [1]; ITC): highest binding affinities
- Kd (UCP1 [1]; ITC, pH 6.0, 20 °C, mean ± standard deviation of three biological repeats (Fig. 2A-E)): 880 ± 120 nM
- Kd (UCP1 [1]; ITC, single biological repeats (source data Fig. 2F)): 810 nM and 800 nM and 1020 nM
- isotherm data point (enthalpy change per injection) (UCP1 [1]; Molar ratio (Nucleotide/UCP) 0.120417, pH 6.0, 20 °C): -35.3409
- isotherm data point (enthalpy change per injection) (UCP1 [1]; Molar ratio (Nucleotide/UCP) 0.428528, pH 6.0, 20 °C): -34.4517
- isotherm data point (enthalpy change per injection) (UCP1 [1]; Molar ratio (Nucleotide/UCP) 0.491383, pH 6.0, 20 °C): -33.5364
- isotherm data point (enthalpy change per injection) (UCP1 [1]; Molar ratio (Nucleotide/UCP) 0.554656, pH 6.0, 20 °C): -34.076
- isotherm data point (enthalpy change per injection) (UCP1 [1]; Molar ratio (Nucleotide/UCP) 0.618348, pH 6.0, 20 °C): -33.0757
- isotherm data point (enthalpy change per injection) (UCP1 [1]; Molar ratio (Nucleotide/UCP) 0.682464, pH 6.0, 20 °C): -31.8617
- isotherm data point (enthalpy change per injection) (UCP1 [1]; Molar ratio (Nucleotide/UCP) 0.811976, pH 6.0, 20 °C): -26.1456
- isotherm data point (enthalpy change per injection) (UCP1 [1]; Molar ratio (Nucleotide/UCP) 0.877378, pH 6.0, 20 °C): -22.2535
- isotherm data point (enthalpy change per injection) (UCP1 [1]; Molar ratio (Nucleotide/UCP) 0.943214, pH 6.0, 20 °C): -16.8687
- isotherm data point (enthalpy change per injection) (UCP1 [1]; Molar ratio (Nucleotide/UCP) 1.0762, pH 6.0, 20 °C): -7.301
- isotherm data point (enthalpy change per injection) (UCP1 [1]; Molar ratio (Nucleotide/UCP) 1.14336, pH 6.0, 20 °C): -4.354
- isotherm data point (enthalpy change per injection) (UCP1 [1]; Molar ratio (Nucleotide/UCP) 1.21096, pH 6.0, 20 °C): -2.46
- isotherm data point (enthalpy change per injection) (UCP1 [1]; Molar ratio (Nucleotide/UCP) 1.41647, pH 6.0, 20 °C): -1.066
- isotherm data point (enthalpy change per injection) (UCP1 [1]; Molar ratio (Nucleotide/UCP) 1.69692, pH 6.0, 20 °C): -0.2462
- isotherm data point (enthalpy change per injection) (UCP1 [1]; Molar ratio (Nucleotide/UCP) 1.76819, pH 6.0, 20 °C): 0.1511
- isotherm data point (enthalpy change per injection) (UCP1 [1]; Molar ratio (Nucleotide/UCP) 1.91217, pH 6.0, 20 °C): -0.4754
- isotherm data point (enthalpy change per injection) (UCP1 [1]; Molar ratio (Nucleotide/UCP) 1.98488, pH 6.0, 20 °C): 0.1711
- change in apparent melting temperature (ΔTm) of hOGC (human OGC (SLC25A11)): 0.7 and 0.4
- change in apparent melting temperature (ΔTm) of hDIC (human DIC (SLC25A10)): 1.0 and 0.5 and 0.8
Molecule: Nc1ncnc2c1ncn2[C@@H]1O[C@H](COP(=O)(O)OP(=O)(O)OP(=O)(O)O)[C@@H](O)[C@H]1O [ATP, adenosine triphosphate]

Molecule: CCCCCCCC/C=C\CCCCCCCC(=O)O [OA, oleic acid]
- Proton influx rate (UCP1 [2]): 908.51 nmol H+/min and 699.43 nmol H+/min and 609.97 nmol H+/min

- binding result [3]: binds
B1: Pro-macrobody PMb71 (VHH)
VHH: QVQLVESGGGLVQAGDSLRLSCAASGLTLKNYAMGWFRQAPGKEHEFVAVISWSGSGTSYADSVEGRFTISRDNAKNTAFLQMSSLKPEDTAVYYCAARDGGYGSRWPDEYTYWGQGTQVTVPP
notes: llama nanobody CA9871; Expressed from the vector pBXNPHM3 (Addgene 110099); also called CA9871; source: E. coli MC1061, purified (Ni-NTA, 3C cleavage, Strep-Tactin XT); not shown: His-tagged MBP, N-terminal, cleaved
